The values below are quoted from earlier work in US20220184020A1, “Polyphenols as Modulators of Platelet Function” (Northeastern University, priority 2019, published 2022).

The conditions of series [1]: cited from earlier work; for Max: maximum concentration detected in blood; for Max / Min: HMDB; for Min: minimum concentration detected in blood; for Concentration in Blood: retrieved from HMDB, Table 2.
The conditions of series [2]: in vitro and in vivo models; cited from earlier work.
For series [3] the following is noted: in vivo models, recent studies; cited from earlier work.
Series [4] deals with MCF7 cell line. The following applies: MCF7, 1 μM, 6 hours; cited from earlier work.

With `O=C(O)c1cccc(O)c1O` [2,3-dihydroxybenzoic acid], in series [1], the “Max” value is 0.129 µM and the “Min” value is 0.129 µM.
Turning to `O=C(O)c1ccccc1O` [2-hydroxybenzoic acid], in series [1], the “Max” value was 0.02 µM and the “Min” value was 0.02 µM.
For `Oc1cc(O)c2c(c1)O[C@H](c1ccc(O)c(O)c1)[C@H](O)C2` [(-)-epicatechin], in series [1], the “Max” value is 0.625 µM, the “Min” value was 0.625 µM and the “Concentration in Blood” value is 625 nM.
With `O=C(O[C@@H]1Cc2c(O)cc(O)cc2O[C@@H]1c1cc(O)c(O)c(O)c1)c1cc(O)c(O)c(O)c1` [(-)-epigallocatechin 3-O-gallate], the glucose-lowering effects result in series [2] is “glucose-lowering effects”.
In the case of `O=c1cc(-c2ccc(O)cc2)oc2cc(O)cc(O)c12` [apigenin], in series [1], the “Max” value was 0.127 µM and the “Min” value is 0.0106 µM.
Consider `O=c1oc2cc(O)ccc2c2oc3cc(O)ccc3c12` [coumestrol], for which, in series [1], the “Max” value is 0.0123 µM and the “Min” value is 0.0123 µM.
For `O=c1oc2c(O)c(O)cc3c(=O)oc4c(O)c(O)cc1c4c23` [ellagic acid], in series [1], the “Max” value is 0.067 µM and the “Min” value was 0.067 µM.
On to `O=C(O)c1cc(O)c(O)c(O)c1` [gallic acid], for which the “effects on vascular health” value in series [3] is given as “protective effects on vascular health”.
In the case of `O=c1c(-c2ccc(O)cc2)coc2cc(O)cc(O)c12` [genistein], in series [4], the “number of Skin Diseases (SD) genes with perturbation score>2” value was 10 and the “number of highly perturbed Cerebrovascular Disorders (CD) genes” value is “one”. Besides, in series [1], the “Max” value was 0.525 µM, the “Min” value is 0.00022 µM and the “Concentration in Blood” value is “[0.006-0.525 μM]”.
With `COc1ccccc1O` [guaiacol], in series [1], the “Max” value was 8.5 µM and the “Min” value was 8.5 µM.
Regarding `COc1cc(-c2oc3cc(O)cc(O)c3c(=O)c2O)ccc1O` [isorhamnetin], in series [1], the “Max” value was 0.157 µM and the “Min” value was 0.0388 µM.
Turning to `O=c1c(O)c(-c2cc(O)c(O)c(O)c2)oc2cc(O)cc(O)c12` [myricetin], in series [1], the “Max” value is 45 µM and the “Min” value was 45 µM.
With `O=C1C[C@@H](c2ccc(O)cc2)Oc2cc(O)cc(O)c21` [naringenin], in series [1], the “Max” value is 0.02 µM and the “Min” value is 0.00815 µM.
In the case of `Oc1ccccc1` [phenol], in series [1], the “Max” value is 6.38 µM and the “Min” value is 0.86 µM.
As to `O=C(O)Cc1ccccc1` [phenylacetic acid], in series [1], the “Max” value is 80.36 µM and the “Min” value was 10.28 µM.
Turning to `O=c1c(O)c(-c2ccc(O)c(O)c2)oc2cc(O)cc(O)c12` [quercetin], the “Concentration in Blood” value in series [1] is “[0.022-0.080 μM]”.
